In publication PMC9572083, “Hybrids of 1,4-Quinone with Quinoline Derivatives: Synthesis, Biological Activity, and Molecular Docking with DT-Diaphorase (NQO1)” (Molecules, 2022):

Columns and labels:
[1] = biological target: T1, NQO1 (DT-diaphorase, EC 1.6.5.5, human recombinant) (Homo sapiens, UniProt P15559); experiment: NQO1 substrate NADPH recycling enzymatic assay; type: biochemical; details: for NQO1 activity (enzymatic conversion rate): compound 10 µmol/L, pH 7.4, 25 °C, absorbance at 340 nm
T1 construct: purchased Sigma-Aldrich
T1 sequence (P15559 whole entry): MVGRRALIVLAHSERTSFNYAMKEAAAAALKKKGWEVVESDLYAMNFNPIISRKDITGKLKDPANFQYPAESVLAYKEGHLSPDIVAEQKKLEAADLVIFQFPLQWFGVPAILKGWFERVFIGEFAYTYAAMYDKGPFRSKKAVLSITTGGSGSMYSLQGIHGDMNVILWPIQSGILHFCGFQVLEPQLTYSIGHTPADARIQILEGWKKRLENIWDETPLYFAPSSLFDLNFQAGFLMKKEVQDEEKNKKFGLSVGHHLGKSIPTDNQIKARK
Protocol: The interaction between 1,4-quinone moiety of hybrid and NQO1 protein leads to reduction in quinone to hydroquinone and production of reactive oxide form (ROS). According to a literature method, the ability of hybrids 11–14 and streptonigrin (ST) to be a substrate for NQO1 was examined by measuring the oxidation of NADPH to NADP^+ [29, 32].
Compounds 11–14 (10 µmol/L) were tested as NQO1 substrates using the NADPH recycling assay according to the literature method. The recombinant NQO1 (DT-diaphorase, EC 1.6.5.5, human recombinant, Sigma-Aldrich) was used, and the oxidation of NADPH to NADP^+ was measured at the absorption wavelength of 340 nm on the BioTek 800TS microplate reader (BioKom, Janki, Poland). Compounds were dissolved in dimethyl sulfoxide (2 µL) and added to the 96-well plate. The NQO1 protein (1.4 µg/mL) in 50 mmol/L potassium phosphate buffer (pH = 7.4) was added to each well (198 µL) (Nunc Thermo Fisher Scientific, Waltham, MA, USA). Once the 96-well plate was filled with the assay solutions, except the NADPH solution, it was placed into the instrument and left to sit for 5 min before starting the measurements. The enzymatic reaction was initiated by automatically dispensing the NADPH solution into the wells, and data were recorded at 10 s intervals for 5 min at 25 °C. The linear part of the absorbance vs. time graphs (the first 20 s to 1 min) was fitted, and the slopes were calculated. NADPH oxidation rates were compared with reactions lacking the tested compound. Initial velocities were calculated, and data were expressed as µmol NADPH/µmol NQO1/min. All reactions were carried out at least in triplicate.

[2] = test system: Colo-829 cells; experiment: Cytotoxic activity, WST-1 assay, melanoma Colo-829; type: cell-based, human; details: for SI (IC50 HFF-1/IC50 cancer line) Colo-829: HFF-1 vs Colo-829; for IC50: Homo sapiens, melanoma Colo-829, 72 h, WST-1
Description: (§1) Anticancer activity of compounds 11–14 was designated against following human cancer cell lines: melanoma (Colo-829), ovarian cancer (SK-OV-3), breast cancer (MDA-MB-231, T47D and MCF-7), lung cancer (A549) and normal fibroblasts (HFF-1). As a reference substance, the doxorubicin was used. The results are presented in Table 1 as IC50, where IC50 means the concentration of tested compounds (µM) causing the growth inhibition of 50% for given tumor cells. The negative value (Neg.) means that the IC50 is higher than 30 µM. Selectivity index (SI) as the ratio of the IC50 for normal fibroblast (HFF-1) to IC50 of the corresponding cell line, is presented in Table S2.
(§2) Compounds 7–14 and doxorubicin were tested for cytotoxic activity in vitro against panel of human cancer cell lines: melanoma (Colo-829, ATCC, Rockville, MD, USA), ovarian cancer (SK-OV-3, ATCC, Rockville, MD, USA), breast cancer (T47D, MCF-7, and MDA-MB-231, ATCC, Rockville, MD, USA) and lung cancer (A549, ATCC, Rockville, MD, USA). The cultured cells were kept at 37 °C and 5% CO2. The cells were seeded (5 × 10^4 cells/well/[…] DMEM supplemented with 10% FCS and streptomycin/penicillin) using 96-well plates (Nunc Thermo Fisher Scientific, Waltham, MA, USA). The tested compounds 7–14 with the concentration of 1–100 µg/mL DMSO were inducted with the cancer cells for 72 h. The WST-1-formazan (proliferation reagent WST-1 assay, Roche Diagnostics, Mannheim, Germany) was detected using a microplate reader at 450 nm. Results were expressed as a mean value of at least three independent experiments performed in triplicate.

[3] = test system: SK-OV-3 cells; experiment: Cytotoxic activity, WST-1 assay, ovarian cancer SK-OV-3; type: cell-based, human; details: for SI (IC50 HFF-1/IC50 cancer line) SK-OV-3: HFF-1 vs SK-OV-3; for IC50: Homo sapiens, ovarian cancer SK-OV-3, 72 h, WST-1
Description: as §1, §2

[4] = test system: MDA-MB-231 cells; experiment: Cytotoxic activity, WST-1 assay, breast cancer MDA-MB-231; type: cell-based, human; details: for SI (IC50 HFF-1/IC50 cancer line) MDA-MB-231: HFF-1 vs MDA-MB-231; for IC50: Homo sapiens, breast cancer MDA-MB-231, 72 h, WST-1
Description: as §1, §2

[5] = test system: T47D cells; experiment: Cytotoxic activity, WST-1 assay, breast cancer T47D; type: cell-based, human; details: for SI (IC50 HFF-1/IC50 cancer line) T47D: HFF-1 vs T47D; for IC50: Homo sapiens, breast cancer T47D, 72 h, WST-1
Description: as §1, §2

[6] = test system: MCF-7 cells; experiment: Cytotoxic activity, WST-1 assay, breast cancer MCF-7; type: cell-based, human; details: for SI (IC50 HFF-1/IC50 cancer line) MCF-7: HFF-1 vs MCF-7; for IC50: Homo sapiens, MCF7, breast cancer MCF-7, 72 h, WST-1
Description: as §1, §2

[7] = test system: A549 cells; experiment: Cytotoxic activity, WST-1 assay, lung cancer A549; type: cell-based, human; details: for SI (IC50 HFF-1/IC50 cancer line) A549: HFF-1 vs A549; for IC50: Homo sapiens, lung cancer A549, 72 h, WST-1
Description: as §1, §2

[8] = test system: HFF-1 cells; experiment: Cytotoxic activity, WST-1 assay, normal fibroblasts HFF-1; type: cell-based; details: Homo sapiens, normal fibroblasts HFF-1, 72 h
Description: as §1, §2

Row | SMILES | NQO1 activity (enzymatic conversion rate) [1] [µmol NADPH/µmol NQO1/min] | Enzymatic conversion rate relative to streptonigrin ([1]; fold higher than streptonigrin) | SI (IC50 HFF-1/IC50 cancer line) Colo-829 [2] | IC50 [2] [µM] | SI (IC50 HFF-1/IC50 cancer line) SK-OV-3 [3] | IC50 [3] [µM] | SI (IC50 HFF-1/IC50 cancer line) MDA-MB-231 [4] | IC50 [4] [µM] | SI (IC50 HFF-1/IC50 cancer line) T47D [5] | IC50 [5] [µM] | SI (IC50 HFF-1/IC50 cancer line) MCF-7 [6] | IC50 [6] [µM] | SI (IC50 HFF-1/IC50 cancer line) A549 [7] | IC50 [7] [µM] | IC50 [8] [µM] | melting point [°C]
1 | O=C1C(Cl)=C(Oc2cccc3cccnc23)C(=O)c2ncccc21 [Compound 11a, 6-chloro-7-(quinolin-8-yloxy)quinoline-5,8-dione] | 1399 ± 26 | about 2 times | 0.55 | 18.5 ± 1.31 | 6.59 | 1.55 ± 0.2 | 0.89 | 11.5 ± 0.19 | 0.55 | 18.7 ± 0.71 | 0.53 | 19.4 ± 0.37 | 6.08 | 1.68 ± 0.05 | 10.2 ± 0.16 | 112 to 114
2 | O=Cc1ccc2cccc(OC3=C(Cl)C(=O)c4cccnc4C3=O)c2n1 [Compound 11c, 8-[(6-chloro-5,8-dioxo-5,8-dihydroquinolin-7-yl)oxy]quinoline-2-carbaldehyde] | 1100 ± 35 |  | 0.90 | 11.7 ± 1.36 | 5.91 | 1.78 ± 0.31 | 0.73 | 14.3 ± 2.01 | 0.47 | 22.2 ± 0.66 | 0.57 | 18.3 ± 1.23 | 7.26 | 1.45 ± 0.13 | 10.5 ± 0.87 | 168 to 170
3 | O=C1C(Cl)=C(Oc2cccc3ccc(Cl)nc23)C(=O)c2ncccc21 [Compound 11d, 6-chloro-7-[(2-chloroquinolin-8-yl)oxy]quinoline-5,8-dione] | 800 ± 64 |  | 9.48 | 1.45 ± 0.24 | 8.81 | 1.56 ± 0.11 | 6.77 | 2.03 ± 0.05 | 6.54 | 2.1 ± 0.11 | 6.51 | 2.11 ± 0.09 | 8.04 | 1.71 ± 0.03 | 13.7 ± 1.27 | 123 to 125
4 | Cc1ccc2c(n1)C(=O)C(Oc1cccc3cccnc13)=C(Cl)C2=O [Compound 12a, 6-chloro-2-methyl-7-(quinolin-8-yloxy)quinoline-5,8-dione] | 1505 ± 54 |  | 11.41 | 1.52 ± 0.35 | 346.80 | 0.05 ± 0.02 | 8.80 | 1.97 ± 0.15 | 10.91 | 1.59 ± 0.15 | 8.30 | 2.09 ± 0.02 | 20.40 | 0.85 ± 0.04 | 17.3 ± 0.89 | 115 to 117
5 | Cc1ccc2c(n1)C(=O)C(Oc1cccc3ccc(C=O)nc13)=C(Cl)C2=O [Compound 12c, 8-[(6-chloro-2-methyl-5,8-dioxo-5,8-dihydroquinolin-7-yl)oxy]quinoline-2-carbaldehyde] | 470 ± 22 |  | 1.23 | 14.6 ± 0.51 | 8.28 | 2.16 ± 0.19 | 0.85 | 21.12 ± 0.11 | 0.77 | 23.3 ± 1.12 | 0.94 | 19.1 ± 0.95 | 5.70 | 3.14 ± 0.43 | 17.9 ± 1.37 | 184 to 186
6 | Cc1ccc2c(n1)C(=O)C(Oc1cccc3ccc(Cl)nc13)=C(Cl)C2=O [Compound 12d, 6-chloro-2-methyl-7-[(2-chloroquinolin-8-yl)oxy]quinoline-5,8-dione] | 890 ± 21 |  | 0.78 | 13.1 ± 0.49 | 0.67 | 15.4 ± 0.48 | 0.66 | 15.6 ± 0.79 | 0.64 | 16.2 ± 0.98 | 0.59 | 17.4 ± 0.82 | 7.04 | 1.46 ± 0.06 | 10.3 ± 1.65 | 120 to 122
7 | O=C1C(Cl)=C(Oc2cccc3cccnc23)C(=O)c2cnccc21 [Compound 13a, 6-chloro-7-(quinolin-8-yloxy)isoquinoline-5,8-dione] | 1210 ± 23 |  | 162.88 | 0.17 ± 0.02 | 60.20 | 0.46 ± 0.02 | 27.15 | 1.02 ± 0.15 | 307.67 | 0.09 ± 0.04 | 23.87 | 1.16 ± 0.15 | 923.00 | 0.03 ± 0.01 | 27.7 ± 0.7 | 86 to 88
8 | O=Cc1ccc2cccc(OC3=C(Cl)C(=O)c4ccncc4C3=O)c2n1 [Compound 13c, 8-[(6-chloro-5,8-dioxo-5,8-dihydroisoquinolin-7-yl)oxy]quinoline-2-carbaldehyde] | 318 ± 19 |  | 38.97 | 0.34 ± 0.28 | 41.41 | 0.32 ± 0.01 | 17.67 | 0.75 ± 0.09 | 25.48 | 0.52 ± 0.08 | 14.89 | 0.89 ± 0.03 | 10.04 | 1.32 ± 0.32 | 13.2 ± 0.85 | 166 to 168
9 | O=C1C(Cl)=C(Oc2cccc3ccc(Cl)nc23)C(=O)c2cnccc21 [Compound 13d, 6-chloro-7-[(2-chloroquinolin-8-yl)oxy]isoquinoline-5,8-dione] | 633 ± 32 |  | 5.66 | 1.96 ± 0.08 | 0.65 | 17.1 ± 1.76 | 6.64 | 1.67 ± 0.11 |  | > 30 | 6.34 | 1.75 ± 0.19 | 184.83 | 0.06 ± 0.01 | 11.1 ± 1.07 | 127 to 129
